Consider 2 compounds from patent US4659712A, “Fodder additive and a process for the preparation” (Richter Gedeon Vegyeszeti Gyar Rt., priority 1984, dated 1987).

The nature of data set [1]: Quinoxaline-2-carboxylic acid (Carbadox metabolite) residue in pig muscle (ham, chop), liver and kidney after flumecinol treatment. The format is in vivo, pigs. Here is the method:
Tests were carried out at a large-scale pig farm, where 25 mg/kg of body weight of Carbadox admixed with the fodder of the pigs were administered to pigs having a live weight of 40 kg. From a population fed with this fodder 27 animals, each weighing exactly 40 kg, were selected, by weighing them separately. The selected animals were railed off in a place suitable for further tests. From this time on (zero time) the animals were given the same fodder as before, except Carbadox.
The 27 animals were divided into three groups as follows:
Group I: 12 animals (ser. Nos. from 1 to 12) slaughtering: three animals each when starting the experiment (0 time) and on the 1st, 5th and 15th days (positive control group) Group II: 9 amimals (ser. Nos. from 13 to 21) treatment: a single 40 mg/kg of body weight dose of flumecinol at zero time. slaughtering: three animals each on the 1st, 5th and 15th days (group treated with a single dose of flumecinol) Group III: 6 animals (ser. Nos. 22 to 27) treatment: 40 mg/kg of body weight of flumecinol for three days, at zero time and on the 1st and 2nd day slaughtering: three animals each on the 5th and 15th days (group treated with flumecinol three times) Flumecinol is available as a micropellet containing 19.02% of active ingredient. From this and a 1% starch hydrolysate a suspension is prepared, containing 40 mg of flumecinol per 1 ml (dose used for one kg of body weight). The active compound was administered 8 o'clock in the morning, without previous fasting, through a stomach tube, in order to ensure exact conditions for the experiments. The animals were killed and samples were taken from 8 to 11 o'clock in the morning, whereupon the samples were transported into the analytical laboratory within one hour, under cooling.
Quinoxaline-2-carboxylic acid (a metabolite of Carbadox) was determined in the chop, liver and kidney tissues of three animals from each group. Each muscle and liver sample was subjected to organoleptic examination also (boiling test).
The quantity of quinoxaline-2-carboxylic acid was determined essentially following the method described in the USDA Chemistry Laboratory Guidebook (5007 Determination of Carbadox):
Following the alkaline hydrolysis of the muscle, liver and kidney samples, the hydrolysates were strongly acidified and the quinoxaline-2-carboxylic acid was extracted with ethyl acetate. The pH of the ethyl acetate extract was adjusted to 6 with a citric acid buffer, whereupon the mixture was extracted with benzene. In the next step the acid was esterified with a mixture of n-propanol and sulfuric acid, to yield propyl quinoxaline-2-carboxylate. The quantity of the latter compound was determined (after purification by thin layer chromatography) by gas chromatography. This cumbersome test procedure was always performed together with a […] control sample to which a known amount (0.2 μg-1.0 μg) of quinoxaline-2-carboxylic acid (standard) was added. The percentage of the active ingredient recovered from this sample was taken into account when calculating the residual active substance amount. In this way the error of the process was eliminated.
The test results, if not otherwise indicated, are given in μg/kg.
The quantity of quinoxaline-2-carboxylic acid in the above-specified slaughtering times is shownn in Table 1. The tests were carried out on three animals and Table 1 contains the results obtained on the individual animals. The results were also statistically evaluated for the various sorts of tissues, although in this specific case this was not really necessary, since according to the valid prescriptions the products of animal origin should not contain Carbadox at all, i.e. the limit is zero. Therefore, we considered it more important to determine when the animal tissues become entirely Carbadox-free, than to observe the differences among the tissues of the various groups of animals in the time when they were killed.

Data set [2] relates to E.coli infections and dysentery. The note with it: pigs; cited from earlier work.
For data set [3] the following is noted: administered as a fodder additive; cited from earlier work.
For data set [4] the following is noted: in vivo; cited from earlier work.

Turning to `O=C(O)c1cnc2ccccc2n1` [quinoxaline-2-carboxylic acid, Quinoxaline-2-carboxylic acid], the “quinoxaline-2-carboxylic acid in muscle, kidney and liver tissues” value in data set [1] (Carbadox, no flumecinol, 15th day following termination) is given as “significant amount”. Further, the “quinoxaline-2-carboxylic acid in the kidney” value in data set [1] (control group, 15th day) is on record as “detected in the kidney even on the 15th day”. Also, the “presence in muscle tissue” value in data set [1] (positive control, 15 days after termination of Carbadox administration) is “present in the muscle tissue even 15 days after the termination of Carbadox administration, in a significant amount”. In addition, the “residual concentration, chop vs. ham” value in data set [1] (positive control, muscle tissue) was “always higher in the chop than in the ham muscle”.
Consider `COC(=O)NN=Cc1c[n+]([O-])c2ccccc2[n+]1[O-]` [Carbadox, 3-(2-quinoxalinylmethylene)-carbazic acid methyl ester N,N'-dioxide, reference compound], for which the “amount of residue in liver, change from initial” value in data set [1] (control group, 1st day) was “further increased on the 1st day”. For the same compound, in data set [1] (control group, 15th day), the “level of residue in liver” value is recorded as “a level identical with the initial concentration in the muscles”. The “amount of the Carbadox metabolite residue in the liver vs. muscle” value in data set [1] (liver) was “one order of magnitude higher than in the muscle tissue”. Besides, the “potency in the treatment and prophylaxis of E.coli infections and dysentery” value in data set [2] is recorded as “very potent”. Moreover, in data set [3], the “increasing the weight gain of animals” value is on record as “one of the most efficious agents employed for increasing the weight gain of animals”. The “elimination rate from the animals” value in data set [4] is “eliminated from the animals at a very low rate”.
